Tested on: acetic acid-induced visceral pain
Assay: acetic acid-induced visceral pain mouse model (writhing/stretch count)
Format: in vivo, mice (male Harlan ICR)
Details: for number of stretches (writhes) per 30 minutes: 0.75% acetic acid IP half an hour later, control mice typically stretch 65-70 times/30 minutes; for effect on inhibiting visceral pain (stretches vs. control mice), in words: doses from 0.37 mg/kg to 30.0 mg/kg SC
Procedure: The acetic acid-induced visceral pain mouse model test is, of course, well known to those skilled in the art and is described in the seminal paper by Collier et al [Collier, H. O. J., L. C. Dinneen, C. A. Johnson and C. Schneider 1968. The abdominal constriction response and its suppression by analgesic drugs in the mouse.
The drugs are identified below as Monoamine #1-6. Five groups of five mice (male Harlan ICR, weight 35-50 g) were used to test each of the drugs. Control animals were tested as part of each experiment as well. The mice in each group were weighed and identified with a tail marking and were given a single dose of one of the drugs at 1 ml/100 g SC. The first group served as controls and was given only saline; the other five groups were given a drug at five doses ranging from 0.37 mg/kg up to 30.0 mg/kg. After the drug was administered, the mice were allowed to acclimate for one-half hour and were then given an IP injection of 0.75% Glacial acetic acid at a volume of 1 ml/100 g. Once the acid was injected, the mice were put into individual clear containers for observation. The mice were then watched continuously for one-half hour and the number of “stretches” or writhes were counted. The animal was considered to be stretching when its front legs stepped forward and at least one hind leg was extended out behind them. At the end of the thirty-minute observational period the mice were sacrificed with CO2. The same procedure was followed for all of the different compounds examined.

Structure (SMILES): CCNCCc1ccccc1O.Cl [Monoamine #1, 2-[2-(Ethylamino)ethyl]phenol Hydrochloride]
- number of stretches (writhes) per 30 minutes (10 mg/kg SC single dose): 25.9±14.8 stretches/30 minutes
- number of stretches (writhes) per 30 minutes (30 mg/kg SC single dose): 13.1±11.7 stretches/30 minutes
- effect on inhibiting visceral pain (stretches vs. control mice), in words (Hydrochloride): statistical significance at all doses tested
- effect on inhibiting visceral pain (stretches vs. control mice), in words (listed as #1, Hydrochloride): effective at all of the doses tested

Structure (SMILES): CCNCCCc1ccccc1O.Cl [Monoamine #2]
- number of stretches (writhes) per 30 minutes (30 mg/kg SC single dose): 47.7±22.4 stretches/30 minutes
- effect on inhibiting visceral pain (stretches vs. control mice), in words: only a minimal effect on inhibiting visceral pain
- effect on inhibiting visceral pain (stretches vs. control mice), in words (listed as #2): little/no effect

Structure (SMILES): CCNCCCCc1ccccc1O [Monoamine #3]
- effect on inhibiting visceral pain (stretches vs. control mice), in words: significantly fewer stretches than the control mice
- effect on inhibiting visceral pain (stretches vs. control mice), in words (listed as #3): effective at all of the doses tested

Structure (SMILES): CCN(CCCc1ccccc1O)Cc1ccccc1.CS(=O)(=O)O [Monoamine #4]
- effect on inhibiting visceral pain (stretches vs. control mice), in words: not effective against visceral pain
- effect on inhibiting visceral pain (stretches vs. control mice), in words (listed as #4): little/no effect

Structure (SMILES): CCNCCCCC1CCCCC1 [Monoamine #5, N-(4-cyclohexylbutyl)-N-ethylamine]
- effect on inhibiting visceral pain (stretches vs. control mice), in words: significantly fewer stretches than the control mice
- effect on inhibiting visceral pain (stretches vs. control mice), in words (listed as #5): effective at all of the doses tested

Structure (SMILES): CCCCCCNC1CCCCC1 [Monoamine #6, N-hexylcyclohexanamine]
- effect on inhibiting visceral pain (stretches vs. control mice), in words: not effective against visceral pain
- effect on inhibiting visceral pain (stretches vs. control mice), in words (listed as #6): little/no effect

Source: patent US20060160905A1, “Compositions and methods for inhibiting pain” (priority 2005, published 2006)
